Data reported in PMC7340849 (Bioorganic & medicinal chemistry letters, 2020).

How the values were obtained:
D1R [1] = molecular target: T1, D1R (Homo sapiens, UniProt P21728); test: Binding affinity at dopamine D1R, [3H]SCH23390 radioligand; details: for selectivity D1R over D5R: from Ki values
D5R = D5R (Homo sapiens, UniProt P21918); test: Binding affinity at dopamine D5R, [3H]SCH23390 radioligand; details: from Ki values
D1R [2] = molecular target: T1, D1R; test: D1R agonist/antagonist assays measuring cAMP modulation; details: agonist mode

T1 sequence (P21728 whole entry): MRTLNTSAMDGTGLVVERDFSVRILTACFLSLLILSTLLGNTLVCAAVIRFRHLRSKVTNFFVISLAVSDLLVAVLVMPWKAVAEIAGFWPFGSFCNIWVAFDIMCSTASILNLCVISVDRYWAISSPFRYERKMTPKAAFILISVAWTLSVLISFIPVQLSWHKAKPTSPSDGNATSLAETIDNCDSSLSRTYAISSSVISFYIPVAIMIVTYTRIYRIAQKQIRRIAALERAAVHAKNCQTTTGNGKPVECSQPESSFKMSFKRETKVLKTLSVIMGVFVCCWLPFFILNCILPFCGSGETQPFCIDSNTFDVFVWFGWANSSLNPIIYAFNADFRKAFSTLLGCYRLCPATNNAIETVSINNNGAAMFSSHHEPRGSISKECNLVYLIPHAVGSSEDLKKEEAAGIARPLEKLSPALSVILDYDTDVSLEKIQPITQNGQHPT
Chain of D5R (P21918 whole entry): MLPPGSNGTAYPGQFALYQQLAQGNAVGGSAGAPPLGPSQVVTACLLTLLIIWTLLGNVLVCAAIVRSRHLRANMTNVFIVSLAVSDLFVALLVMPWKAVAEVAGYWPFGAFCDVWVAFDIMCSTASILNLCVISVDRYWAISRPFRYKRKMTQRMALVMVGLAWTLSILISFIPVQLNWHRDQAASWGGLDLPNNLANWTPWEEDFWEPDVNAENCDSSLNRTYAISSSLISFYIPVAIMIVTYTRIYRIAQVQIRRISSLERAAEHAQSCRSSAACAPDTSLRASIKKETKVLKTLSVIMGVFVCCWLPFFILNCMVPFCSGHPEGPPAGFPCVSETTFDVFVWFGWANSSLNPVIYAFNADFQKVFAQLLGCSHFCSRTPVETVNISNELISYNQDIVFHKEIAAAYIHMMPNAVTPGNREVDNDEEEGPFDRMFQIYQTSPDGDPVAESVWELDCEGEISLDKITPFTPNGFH

Row | SMILES | selectivity D1R over D5R (D1R [1]) | further results
1 | COc1cc2c(cc1O)C(c1ccccc1)CNCC2 (stereo not drawn) [Compound 6a] | up to 3 fold | –
2 | COc1cc2c(cc1O)C(c1ccccc1Cl)CNCC2 (stereo not drawn) [Compound 6b] | up to 3 fold | –
3 | COc1cc2c(cc1O)C(c1c(Cl)cccc1Cl)CNCC2 (stereo not drawn) [Compound 6c] | – | selectivity D5R over D1R (D5R): 3 fold
4 | COc1cc2c(cc1O)C(c1ccccc1Br)CNCC2 (stereo not drawn) [Compound 6d] | up to 3 fold | –
5 | Oc1cc2c(cc1O)C(c1ccccc1Br)CNCC2 (stereo not drawn) [Compound 7] | – | increase in D1R affinity versus C7 methoxy analog 6d (D1R [1]; catechol 7 compared with 6d): roughly 3 fold
6 | COc1cc2c(cc1O)C(c1ccccc1Cl)CN(C)CC2 (stereo not drawn) [Compound 10a] | – | agonist activity (D1R [2]): No agonist activity was detected
